Measurements from the kinase profiling compilation of Christmann-Franck et al. (2016).

How the values were obtained:
Experiment in all cases: radiometric filter-binding kinase assay, Kinase HotSpot
Conditions in all cases: compound 0.5 µM; ATP 10 µM
CDK2 CCNE1 (human) = CDK2 CCNE1 (human) (UniProt P24941+P24864)
AKT3 (human) = AKT3 (human) (UniProt Q9Y243)
TEK (human) = TEK (human) (UniProt Q02763)
NTRK2 (human) = NTRK2 (human) (UniProt Q16620)
[1] = molecular target: JAK1 JH1 catalytic (human) (UniProt P23458)
Sequence of JAK1 JH1 catalytic (human) (P23458 whole entry, looked up): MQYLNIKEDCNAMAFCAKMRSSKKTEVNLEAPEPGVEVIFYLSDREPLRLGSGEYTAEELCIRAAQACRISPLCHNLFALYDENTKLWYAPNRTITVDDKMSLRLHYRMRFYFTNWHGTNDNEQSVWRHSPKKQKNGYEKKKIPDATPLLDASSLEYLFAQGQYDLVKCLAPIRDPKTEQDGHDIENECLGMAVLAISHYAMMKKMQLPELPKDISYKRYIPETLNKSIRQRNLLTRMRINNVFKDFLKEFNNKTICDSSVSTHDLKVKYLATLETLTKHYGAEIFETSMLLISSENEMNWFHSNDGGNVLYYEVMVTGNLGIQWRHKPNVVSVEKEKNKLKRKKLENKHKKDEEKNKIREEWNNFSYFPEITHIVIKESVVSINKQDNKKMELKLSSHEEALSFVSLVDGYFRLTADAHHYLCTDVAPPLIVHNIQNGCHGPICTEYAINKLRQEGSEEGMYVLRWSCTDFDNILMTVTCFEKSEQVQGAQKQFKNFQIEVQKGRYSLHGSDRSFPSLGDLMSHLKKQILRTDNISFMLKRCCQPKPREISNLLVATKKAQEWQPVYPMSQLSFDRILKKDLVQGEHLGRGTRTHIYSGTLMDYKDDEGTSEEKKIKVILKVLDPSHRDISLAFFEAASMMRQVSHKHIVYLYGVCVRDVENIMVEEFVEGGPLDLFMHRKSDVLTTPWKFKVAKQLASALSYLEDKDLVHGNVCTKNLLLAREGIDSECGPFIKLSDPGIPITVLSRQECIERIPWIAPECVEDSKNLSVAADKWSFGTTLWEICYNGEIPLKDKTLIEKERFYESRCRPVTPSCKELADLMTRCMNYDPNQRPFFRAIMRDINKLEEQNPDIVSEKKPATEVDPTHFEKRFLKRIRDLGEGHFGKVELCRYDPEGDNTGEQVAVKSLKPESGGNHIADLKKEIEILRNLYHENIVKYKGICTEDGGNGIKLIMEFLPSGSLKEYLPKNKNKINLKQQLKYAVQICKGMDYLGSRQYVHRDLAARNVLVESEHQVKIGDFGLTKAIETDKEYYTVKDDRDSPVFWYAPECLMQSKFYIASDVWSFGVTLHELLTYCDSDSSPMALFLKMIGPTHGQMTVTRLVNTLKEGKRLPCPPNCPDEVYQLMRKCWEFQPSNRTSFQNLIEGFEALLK

BTK (human) = BTK (human) (UniProt Q06187)
CHUK (human) = CHUK (human) (UniProt O15111)
RPS6KA2 KD1 KD2 (human) = RPS6KA2 KD1 KD2 (human) (UniProt Q15349)
TAOK3 (human) = TAOK3 (human) (UniProt Q9H2K8)
TGFBR1 (human) = TGFBR1 (human) (UniProt P36897)
Sequence of TGFBR1 (human) (P36897 whole entry, looked up): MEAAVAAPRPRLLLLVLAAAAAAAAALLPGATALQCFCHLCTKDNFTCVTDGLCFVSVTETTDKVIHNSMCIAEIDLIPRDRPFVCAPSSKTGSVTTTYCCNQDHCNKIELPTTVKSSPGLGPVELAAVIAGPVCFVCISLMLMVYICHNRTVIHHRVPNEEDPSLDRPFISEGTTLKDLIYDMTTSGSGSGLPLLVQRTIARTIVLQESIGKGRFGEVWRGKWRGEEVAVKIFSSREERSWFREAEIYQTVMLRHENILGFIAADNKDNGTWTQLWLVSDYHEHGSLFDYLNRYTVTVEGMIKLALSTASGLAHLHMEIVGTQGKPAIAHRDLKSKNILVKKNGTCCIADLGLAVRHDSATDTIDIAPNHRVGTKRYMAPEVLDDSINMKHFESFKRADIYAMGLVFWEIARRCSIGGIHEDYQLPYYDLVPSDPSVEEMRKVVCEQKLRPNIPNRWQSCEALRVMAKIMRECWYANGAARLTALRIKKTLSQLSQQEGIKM

MARK1 (human) = MARK1 (human) (UniProt Q9P0L2)
DAPK3 (human) = DAPK3 (human) (UniProt O43293)
FLT1 (human) = FLT1 (human) (UniProt P17948)
MAPKAPK3 (human) = MAPKAPK3 (human) (UniProt Q16644)
PRKACA (human) = PRKACA (human) (UniProt P17612)
PAK1 (human) = PAK1 (human) (UniProt Q13153)
MYLK (human) = MYLK (human) (UniProt Q15746)
CSF1R (human) = CSF1R (human) (UniProt P07333)
EPHA2 (human) = EPHA2 (human) (UniProt P29317)
Sequence of EPHA2 (human) (P29317 whole entry, looked up): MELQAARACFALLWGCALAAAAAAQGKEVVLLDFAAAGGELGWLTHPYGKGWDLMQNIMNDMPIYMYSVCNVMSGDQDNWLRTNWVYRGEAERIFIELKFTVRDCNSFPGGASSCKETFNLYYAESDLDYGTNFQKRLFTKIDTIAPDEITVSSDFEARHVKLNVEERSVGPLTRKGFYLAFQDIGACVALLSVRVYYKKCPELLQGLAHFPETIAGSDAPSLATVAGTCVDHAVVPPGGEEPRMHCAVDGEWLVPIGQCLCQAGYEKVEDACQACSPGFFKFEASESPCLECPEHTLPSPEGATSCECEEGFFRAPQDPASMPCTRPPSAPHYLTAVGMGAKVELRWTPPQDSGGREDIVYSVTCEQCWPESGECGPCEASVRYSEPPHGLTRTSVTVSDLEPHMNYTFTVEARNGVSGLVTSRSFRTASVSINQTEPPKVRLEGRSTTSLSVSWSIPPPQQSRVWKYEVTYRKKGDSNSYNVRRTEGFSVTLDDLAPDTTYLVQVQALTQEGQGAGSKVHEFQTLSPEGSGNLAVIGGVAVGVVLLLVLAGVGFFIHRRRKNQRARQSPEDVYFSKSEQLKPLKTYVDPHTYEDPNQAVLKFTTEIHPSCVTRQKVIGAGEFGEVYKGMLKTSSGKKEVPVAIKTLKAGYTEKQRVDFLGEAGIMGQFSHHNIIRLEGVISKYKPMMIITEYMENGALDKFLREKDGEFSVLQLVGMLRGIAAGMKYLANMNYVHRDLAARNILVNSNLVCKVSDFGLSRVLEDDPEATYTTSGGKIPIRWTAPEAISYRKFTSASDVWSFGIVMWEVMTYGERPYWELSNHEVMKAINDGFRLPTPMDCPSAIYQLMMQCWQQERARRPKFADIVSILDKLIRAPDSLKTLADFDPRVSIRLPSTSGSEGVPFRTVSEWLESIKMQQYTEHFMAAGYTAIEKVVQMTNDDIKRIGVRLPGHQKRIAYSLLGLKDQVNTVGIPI

CAMK1D (human) = CAMK1D (human) (UniProt Q8IU85)
FES (human) = FES (human) (UniProt P07332)
TXK (human) = TXK (human) (UniProt P42681)
DYRK3 (human) = DYRK3 (human) (UniProt O43781)
FGFR2 (human) = FGFR2 (human) (UniProt P21802)
CDK7 CCNH MNAT1 (human) = CDK7 CCNH MNAT1 (human) (UniProt P50613+P51948+P51946)
CDK9 CCNK (human) = CDK9 CCNK (human) (UniProt O75909+P50750)
Sequence of CDK9 CCNK (human) (O75909 whole entry, looked up): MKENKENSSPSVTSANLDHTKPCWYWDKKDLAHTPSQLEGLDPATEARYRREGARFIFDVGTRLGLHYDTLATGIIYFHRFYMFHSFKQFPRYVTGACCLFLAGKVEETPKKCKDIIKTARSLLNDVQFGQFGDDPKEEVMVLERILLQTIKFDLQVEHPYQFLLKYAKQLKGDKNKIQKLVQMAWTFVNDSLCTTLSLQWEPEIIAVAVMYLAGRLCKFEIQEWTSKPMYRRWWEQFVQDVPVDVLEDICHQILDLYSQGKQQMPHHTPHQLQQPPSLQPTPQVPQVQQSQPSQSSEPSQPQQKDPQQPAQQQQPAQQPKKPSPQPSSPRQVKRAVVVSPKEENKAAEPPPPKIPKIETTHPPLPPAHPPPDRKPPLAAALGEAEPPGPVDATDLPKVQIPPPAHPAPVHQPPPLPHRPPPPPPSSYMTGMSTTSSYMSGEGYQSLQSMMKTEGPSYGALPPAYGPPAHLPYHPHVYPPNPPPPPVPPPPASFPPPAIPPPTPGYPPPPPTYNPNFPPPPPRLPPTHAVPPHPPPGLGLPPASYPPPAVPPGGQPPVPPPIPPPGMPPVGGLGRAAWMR
Sequence of CDK9 CCNK (human) (P50750 whole entry, looked up): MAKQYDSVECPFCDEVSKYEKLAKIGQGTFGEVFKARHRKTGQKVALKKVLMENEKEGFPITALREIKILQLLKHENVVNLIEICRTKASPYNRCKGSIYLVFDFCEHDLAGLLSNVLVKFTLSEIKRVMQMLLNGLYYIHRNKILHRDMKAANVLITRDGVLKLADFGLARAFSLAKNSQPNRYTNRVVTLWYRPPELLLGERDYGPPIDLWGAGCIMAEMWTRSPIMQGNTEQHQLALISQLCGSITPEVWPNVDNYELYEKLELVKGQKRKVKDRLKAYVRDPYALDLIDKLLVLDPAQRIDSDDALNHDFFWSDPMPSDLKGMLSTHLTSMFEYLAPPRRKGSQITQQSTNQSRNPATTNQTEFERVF

STK33 (human) = STK33 (human) (UniProt Q9BYT3)
NEK2 (human) = NEK2 (human) (UniProt P51955)
KDR (human) = KDR (human) (UniProt P35968)
RPS6KA1 KD1 KD2 (human) = RPS6KA1 KD1 KD2 (human) (UniProt Q15418)
DYRK1A (human) = DYRK1A (human) (UniProt Q13627)
NUAK2 (human) = NUAK2 (human) (UniProt Q9H093)
Sequence of NUAK2 (human) (Q9H093 whole entry, looked up): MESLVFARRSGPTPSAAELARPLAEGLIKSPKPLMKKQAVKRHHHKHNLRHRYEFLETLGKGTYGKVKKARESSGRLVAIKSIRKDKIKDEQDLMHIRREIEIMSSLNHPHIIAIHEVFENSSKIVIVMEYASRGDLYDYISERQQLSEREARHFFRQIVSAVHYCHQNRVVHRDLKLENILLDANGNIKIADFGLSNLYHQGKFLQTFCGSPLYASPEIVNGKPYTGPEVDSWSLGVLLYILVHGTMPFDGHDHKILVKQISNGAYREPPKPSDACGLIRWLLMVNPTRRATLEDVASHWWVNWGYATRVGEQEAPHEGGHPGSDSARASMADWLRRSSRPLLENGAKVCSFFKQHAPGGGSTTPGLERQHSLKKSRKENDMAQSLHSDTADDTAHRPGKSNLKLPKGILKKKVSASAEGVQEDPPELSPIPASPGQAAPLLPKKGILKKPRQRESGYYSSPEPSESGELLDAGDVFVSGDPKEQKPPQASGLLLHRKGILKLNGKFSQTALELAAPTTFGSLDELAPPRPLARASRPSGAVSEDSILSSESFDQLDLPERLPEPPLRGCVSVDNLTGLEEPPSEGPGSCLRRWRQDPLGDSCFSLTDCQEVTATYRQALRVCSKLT

NEK4 (human) = NEK4 (human) (UniProt P51957)
STK3 (human) = STK3 (human) (UniProt Q13188)
ADRBK1 (human) = ADRBK1 (human) (UniProt P25098)
TSSK1B (human) = TSSK1B (human) (UniProt Q9BXA7)
BLK (human) = BLK (human) (UniProt P51451)
Sequence of BLK (human) (P51451 whole entry, looked up): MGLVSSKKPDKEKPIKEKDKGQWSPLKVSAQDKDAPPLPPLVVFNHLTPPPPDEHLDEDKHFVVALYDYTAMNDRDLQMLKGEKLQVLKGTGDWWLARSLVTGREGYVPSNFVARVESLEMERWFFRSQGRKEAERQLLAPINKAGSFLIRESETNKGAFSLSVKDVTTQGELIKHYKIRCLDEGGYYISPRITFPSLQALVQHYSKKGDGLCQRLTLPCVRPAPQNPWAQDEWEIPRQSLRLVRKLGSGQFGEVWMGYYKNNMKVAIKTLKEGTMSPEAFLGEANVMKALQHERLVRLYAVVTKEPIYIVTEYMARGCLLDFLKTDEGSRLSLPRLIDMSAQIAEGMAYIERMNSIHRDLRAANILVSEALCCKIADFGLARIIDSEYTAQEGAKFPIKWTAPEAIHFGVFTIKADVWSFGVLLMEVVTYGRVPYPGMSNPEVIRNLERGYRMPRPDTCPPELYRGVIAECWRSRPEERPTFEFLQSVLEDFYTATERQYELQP

DYRK1B (human) = DYRK1B (human) (UniProt Q9Y463)
PHKG1 (human) = PHKG1 (human) (UniProt Q16816)
MAPK8 (human) = MAPK8 (human) (UniProt P45983)
ADRBK2 (human) = ADRBK2 (human) (UniProt P35626)

## COc1cccc(-c2cc(=O)c3ccccc3o2)c1N
CDK2 CCNE1 (human)
  residual activity: 95.3%
AKT3 (human)
  residual activity: 101%
TEK (human)
  residual activity: 93.1%
NTRK2 (human)
  residual activity: 65.4%
[1]
  residual activity: 98.9%
BTK (human)
  residual activity: 83.7%
CHUK (human)
  residual activity: 104%
RPS6KA2 KD1 KD2 (human)
  residual activity: 96.4%
TAOK3 (human)
  residual activity: 77%
TGFBR1 (human)
  residual activity: 94.7%
MARK1 (human)
  residual activity: 96.9%
DAPK3 (human)
  residual activity: 101%
FLT1 (human)
  residual activity: 87.7%
MAPKAPK3 (human)
  residual activity: 88.1%
PRKACA (human)
  residual activity: 87.7%
PAK1 (human)
  residual activity: 97.5%
MYLK (human)
  residual activity: 98.9%
CSF1R (human)
  residual activity: 101%
EPHA2 (human)
  residual activity: 105%
CAMK1D (human)
  residual activity: 65.3%
FES (human)
  residual activity: 94.3%
TXK (human)
  residual activity: 94.6%
DYRK3 (human)
  residual activity: 90.3%
FGFR2 (human)
  residual activity: 97.8%
CDK7 CCNH MNAT1 (human)
  residual activity: 99.9%
CDK9 CCNK (human)
  residual activity: 98.3%
STK33 (human)
  residual activity: 98.2%
NEK2 (human)
  residual activity: 86.1%
KDR (human)
  residual activity: 81.3%
RPS6KA1 KD1 KD2 (human)
  residual activity: 92.7%
DYRK1A (human)
  residual activity: 94%
NUAK2 (human)
  residual activity: 82.9%
NEK4 (human)
  residual activity: 93.4%
STK3 (human)
  residual activity: 97.1%
ADRBK1 (human)
  residual activity: 99.6%
TSSK1B (human)
  residual activity: 82.4%
BLK (human)
  residual activity: 107%
DYRK1B (human)
  residual activity: 88.1%
PHKG1 (human)
  residual activity: 92.9%
MAPK8 (human)
  residual activity: 95.3%
ADRBK2 (human)
  residual activity: 94.7%

## Cn1cc(/C=C2\C(=O)Nc3ccc(S(N)(=O)=O)cc32)c2ccccc21
CDK2 CCNE1 (human)
  residual activity: 77.9%
AKT3 (human)
  residual activity: 97.4%
TEK (human)
  residual activity: 95.8%
NTRK2 (human)
  residual activity: 4.83%
[1]
  residual activity: 83.9%
BTK (human)
  residual activity: 30.4%
CHUK (human)
  residual activity: 109%
RPS6KA2 KD1 KD2 (human)
  residual activity: 9.26%
TAOK3 (human)
  residual activity: 60.2%
TGFBR1 (human)
  residual activity: 97.8%
MARK1 (human)
  residual activity: 40.4%
DAPK3 (human)
  residual activity: 94.1%
FLT1 (human)
  residual activity: 70.1%
MAPKAPK3 (human)
  residual activity: 91.5%
PRKACA (human)
  residual activity: 104%
PAK1 (human)
  residual activity: 90.8%
MYLK (human)
  residual activity: 95%
CSF1R (human)
  residual activity: 82.5%
EPHA2 (human)
  residual activity: 93%
CAMK1D (human)
  residual activity: 69.6%
FES (human)
  residual activity: 57.4%
TXK (human)
  residual activity: 51.3%
DYRK3 (human)
  residual activity: 89.7%
FGFR2 (human)
  residual activity: 50.5%
CDK7 CCNH MNAT1 (human)
  residual activity: 73.7%
CDK9 CCNK (human)
  residual activity: 86.8%
STK33 (human)
  residual activity: 46.3%
NEK2 (human)
  residual activity: 89.1%
KDR (human)
  residual activity: 74.3%
RPS6KA1 KD1 KD2 (human)
  residual activity: 12.7%
DYRK1A (human)
  residual activity: 92.2%
NUAK2 (human)
  residual activity: 102%
NEK4 (human)
  residual activity: 81%
STK3 (human)
  residual activity: 23.4%
ADRBK1 (human)
  residual activity: 100%
TSSK1B (human)
  residual activity: 17%
BLK (human)
  residual activity: 42.9%
DYRK1B (human)
  residual activity: 104%
PHKG1 (human)
  residual activity: 20.6%
MAPK8 (human)
  residual activity: 108%
ADRBK2 (human)
  residual activity: 111%

## O=C1NC(=O)c2cc(Nc3ccc(F)cc3)c(Nc3ccc(F)cc3)cc21
CDK2 CCNE1 (human)
  residual activity: 94.3%
AKT3 (human)
  residual activity: 100%
TEK (human)
  residual activity: 97.6%
NTRK2 (human)
  residual activity: 91.9%
[1]
  residual activity: 91.5%
BTK (human)
  residual activity: 94.3%
CHUK (human)
  residual activity: 99.2%
RPS6KA2 KD1 KD2 (human)
  residual activity: 98.7%
TAOK3 (human)
  residual activity: 89.9%
TGFBR1 (human)
  residual activity: 98.1%
MARK1 (human)
  residual activity: 98.9%
DAPK3 (human)
  residual activity: 101%
FLT1 (human)
  residual activity: 81.5%
MAPKAPK3 (human)
  residual activity: 95.9%
PRKACA (human)
  residual activity: 94.5%
PAK1 (human)
  residual activity: 95.5%
MYLK (human)
  residual activity: 100%
CSF1R (human)
  residual activity: 104%
EPHA2 (human)
  residual activity: 94.3%
CAMK1D (human)
  residual activity: 78.1%
FES (human)
  residual activity: 99.5%
TXK (human)
  residual activity: 84.1%
DYRK3 (human)
  residual activity: 97.1%
FGFR2 (human)
  residual activity: 102%
CDK7 CCNH MNAT1 (human)
  residual activity: 100%
CDK9 CCNK (human)
  residual activity: 90.8%
STK33 (human)
  residual activity: 99.3%
NEK2 (human)
  residual activity: 96.3%
KDR (human)
  residual activity: 97.9%
RPS6KA1 KD1 KD2 (human)
  residual activity: 97.7%
DYRK1A (human)
  residual activity: 95.6%
NUAK2 (human)
  residual activity: 112%
NEK4 (human)
  residual activity: 107%
STK3 (human)
  residual activity: 90.7%
ADRBK1 (human)
  residual activity: 104%
TSSK1B (human)
  residual activity: 90.2%
BLK (human)
  residual activity: 94.3%
DYRK1B (human)
  residual activity: 105%
PHKG1 (human)
  residual activity: 94.8%
MAPK8 (human)
  residual activity: 91.4%
ADRBK2 (human)
  residual activity: 104%

## FC(F)(F)c1ccc(/C=C/c2nc(COc3ccc(CCCCn4ccnn4)cc3)co2)cc1
CDK2 CCNE1 (human)
  residual activity: 96.3%
AKT3 (human)
  residual activity: 96.3%
TEK (human)
  residual activity: 95.8%
NTRK2 (human)
  residual activity: 102%
[1]
  residual activity: 103%
BTK (human)
  residual activity: 98.2%
CHUK (human)
  residual activity: 96.8%
RPS6KA2 KD1 KD2 (human)
  residual activity: 96.8%
TAOK3 (human)
  residual activity: 93%
TGFBR1 (human)
  residual activity: 98.8%
MARK1 (human)
  residual activity: 102%
DAPK3 (human)
  residual activity: 105%
FLT1 (human)
  residual activity: 95.5%
MAPKAPK3 (human)
  residual activity: 98.9%
PRKACA (human)
  residual activity: 101%
PAK1 (human)
  residual activity: 104%
MYLK (human)
  residual activity: 94.8%
CSF1R (human)
  residual activity: 103%
EPHA2 (human)
  residual activity: 102%
CAMK1D (human)
  residual activity: 109%
FES (human)
  residual activity: 102%
TXK (human)
  residual activity: 101%
DYRK3 (human)
  residual activity: 109%
FGFR2 (human)
  residual activity: 96.7%
CDK7 CCNH MNAT1 (human)
  residual activity: 107%
CDK9 CCNK (human)
  residual activity: 105%
STK33 (human)
  residual activity: 93.7%
NEK2 (human)
  residual activity: 96.2%
KDR (human)
  residual activity: 106%
RPS6KA1 KD1 KD2 (human)
  residual activity: 97.9%
DYRK1A (human)
  residual activity: 105%
NUAK2 (human)
  residual activity: 101%
NEK4 (human)
  residual activity: 90%
STK3 (human)
  residual activity: 95.5%
ADRBK1 (human)
  residual activity: 113%
TSSK1B (human)
  residual activity: 93.4%
BLK (human)
  residual activity: 102%
DYRK1B (human)
  residual activity: 96.7%
PHKG1 (human)
  residual activity: 92.9%
MAPK8 (human)
  residual activity: 105%
ADRBK2 (human)
  residual activity: 104%

## O=C(O)c1ccc2c3c1cccc3c(=O)n1c3ccccc3nc21
CDK2 CCNE1 (human)
  residual activity: 90.9%
AKT3 (human)
  residual activity: 104%
TEK (human)
  residual activity: 102%
NTRK2 (human)
  residual activity: 98.4%
[1]
  residual activity: 98.4%
BTK (human)
  residual activity: 109%
CHUK (human)
  residual activity: 114%
RPS6KA2 KD1 KD2 (human)
  residual activity: 90.5%
TAOK3 (human)
  residual activity: 93.1%
TGFBR1 (human)
  residual activity: 99.4%
MARK1 (human)
  residual activity: 79.5%
DAPK3 (human)
  residual activity: 51.3%
FLT1 (human)
  residual activity: 86.5%
MAPKAPK3 (human)
  residual activity: 103%
PRKACA (human)
  residual activity: 99.4%
PAK1 (human)
  residual activity: 95.6%
MYLK (human)
  residual activity: 89.8%
CSF1R (human)
  residual activity: 104%
EPHA2 (human)
  residual activity: 102%
CAMK1D (human)
  residual activity: 100%
FES (human)
  residual activity: 98.2%
TXK (human)
  residual activity: 102%
DYRK3 (human)
  residual activity: 92.3%
FGFR2 (human)
  residual activity: 100%
CDK7 CCNH MNAT1 (human)
  residual activity: 92.1%
CDK9 CCNK (human)
  residual activity: 76.4%
STK33 (human)
  residual activity: 78.8%
NEK2 (human)
  residual activity: 109%
KDR (human)
  residual activity: 101%
RPS6KA1 KD1 KD2 (human)
  residual activity: 101%
DYRK1A (human)
  residual activity: 55.5%
NUAK2 (human)
  residual activity: 122%
NEK4 (human)
  residual activity: 60.4%
STK3 (human)
  residual activity: 97.1%
ADRBK1 (human)
  residual activity: 99.3%
TSSK1B (human)
  residual activity: 112%
BLK (human)
  residual activity: 100%
DYRK1B (human)
  residual activity: 40.1%
PHKG1 (human)
  residual activity: 91.5%
MAPK8 (human)
  residual activity: 98%
ADRBK2 (human)
  residual activity: 103%
